Legend:
[1] = test system: tactile allodynia in allodynic rats; test: Tactile allodynia test (von Frey filaments, paw withdrawal threshold) in CCI (Bennett model) rats; assay type: in vivo, rat
From the text: Bennett Model: In this model, approximately 0.8 cm of the left sciatic nerve was exposed and freed with sharpened scissors at middle-thigh level as described by Bennett and Xie.^[76] Four ligatures were placed loosely around the sciatic nerve with 4-0 chromic catgut, with 1 mm space between the ties, which compresses the nerve but epineural blood circulation is preserved. The tissue and skin were closed in layers. […] Most allodynia was seen during the time period of 7-14 days after the surgery.
Intrathecal catheter installation: A PE10 catheter, stretched to a somewhat thinner diameter in the distal part, was introduced into the spinal canal (subarachnoid space) via a 21 G (gauge) cannula between the L5 and L6 lamina and advanced to the lumbar enlargement in rats. The proximal part was tunneled under the skin and led out on the upper dorsal region. The location of the catheter was verified by the injection of 6 μl (50 mg/ml) xylocalne, such that a transient, flaccid paralysis of the legs was produced, and by X-ray after administration of 10 μl iodine contrast medium (Astra, Sweden). The catheter could be kept for up to two weeks in animals.^[79]
The maximum volume injected at any one time was 10 μl.^[79]
Tactile allodynia test: In a transparent glass chamber (20×20 cm) with a mesh net floor, each animal was subjected to the tactile allodynia test. A positive response is when an innocuous tactile stimulus induces a brief paw withdrawal away from the stimulation, similar to a paw withdrawal due to heat. A set of von Frey filaments from 0.01 to 28 g (Stoelting Co., Wood Dale, Ill.) were applied to the mid-paw of the allodynic rats at 1 gram, and then progressing up or down. The filament was pressed against the plantar surface for 1 to 2 seconds until it bent. Subsequent applications were made with a higher or lower von Frey filament depending on the animal response. The testing always began with normal paws. If a filament induced a brief paw withdrawal of a paw without bending in three out of five tests, the size of the filament was recorded as eliciting a positive withdrawal threshold.^[80] Allodynia was considered to be present when a withdrawal threshold was evoked by a filament corresponding to 8 grams or less.
In rats with tactile allodynia (a withdrawal threshold with a filament below 8 g), an intrathecal catheter (PE 10) was installed and linked to an osmotic pump (Alzet) in a 37° C. water bath. Following a bolus injection of SCP-1 (30 nmol/kg, 10 μl), agrin siRNA (100 nM) was intrathecally administered continuously by the pump at a rate of 5 μl/1 hour for 4 hr. The animals were subjected to von Frey filament test every 15 min for 4 hr to determine whether the effects of SCP-1 on allodynia suppression are blocked by agrin siRNA. A control siRNA (nFsiRNA) was applied in the same way. The behavioral data was analyzed for agrin effects. Immediately after behavioral experiments, the animals were sacrificed and subjected to protein extraction of lumbar spinal cord, followed by Western-blot analysis as described above.
A blind test was designed for intrathecal drug evaluations. Five days after CCI, rats were subjected to tactile allodynia tests with von Frey filaments. If a filament corresponding to 8 grams or less evoked a withdrawal response on the rat paw (at least 3 responses out of 5 stimuli), the value was designated as the allodynia threshold. […] Either a drug (100 nmol in 10 μl saline) or vehicle (only 10 μl saline) was pre-warmed and intrathecally injected into the allodynic rats. Then the rats were assayed for changes in allodynic and hyperalgesic behavior, agrin gene expression, and agrin protein changes. In addition, distribution and amount of agrin in the dorsal horn were visualized using immunostaining of L5 as reported above in Example 7.

[2] = test system: thermal hyperalgesia in allodynic rats; test: Thermal hyperalgesia test (paw withdrawal latency) in CCI (Bennett) rats; assay type: in vivo, rat

What does the source list for `O=C(CN1C(=O)c2ccccc2S1(=O)=O)Nc1ccc(O)cc1` [SCP-1]?
time to normalized withdrawal threshold ([1]; Example 9: SCP-1 alone): about one hour after injection; effect on withdrawal threshold ([1]; Example 9: injected 7 days after CCI, SCP-1 alone, up to 4 h): normalized the withdrawal threshold; duration of effect on withdrawal threshold ([1]; intrathecal 100 nmol in 10 μl): up to 8 hr; time to normal withdrawal threshold ([1]; intrathecal 100 nmol in 10 μl): about an hour after injection; effect on paw-withdrawal threshold ([1]; intrathecal 100 nmol in 10 μl in allodynic rats, day 7 after injury, up to 8 hr): raised the withdrawal threshold to normal values; effect on tactile allodynia ([1]; intrathecal 100 nmol, day 7 after injury): suppressed the tactile allodynia; increase in paw-withdrawal latency (thermal hyperalgesia) ([2]; intrathecal 100 nmol in 10 μl, CCI (Bennett) rat model): 80%; effect on paw-withdrawal latency at 120 min post injection ([2]; intrathecal 100 nmol, 120 min): still apparent

— patent US20100004171A1, “Therapeutic Methods for Neuropathic Pain” (priority 2006, published 2010)
